From US10525110B2, “Methods for inducing partial apoptosis using caspase polypeptides” (Bellicum Pharmaceuticals, Inc., priority 2013, dated 2020)

Columns and labels:
non-transduced cells = test: Viability of non-transduced cells with AP20187; assay type: cell-based, human
Protocol: (§1) Suicide gene functionality was assessed by adding a small molecule synthetic homodimerizer, AP20187 (Ariad Pharmaceuticals; Cambridge, Mass.), at 10 nM final concentration the day following CD19 immunomagnetic selection. Cells were stained with annexin V and 7-amino-actinomycin (7-AAD)(BD Pharmingen) at 24 hours and analyzed by flow cytometry. Cells negative for both annexin V and 7-AAD were considered viable, cells that were annexin V positive were apoptotic, and cells that were both annexin V and 7-AAD positive were necrotic. The percentage killing induced by dimerization was corrected for baseline viability as follows: Percentage killing=100%−(% Viability in AP20187-treated cells÷% Viability in non-treated cells).
The day following immunomagnetic selection, 10 nM of the chemical inducer of dimerization, AP20187, was added to induce apoptosis, which appeared within 24 hours. […] Killing efficiency after correction for baseline viability was about 92.9%±3.8%. Large-scale CD19 selection produced cells that were killed with similar efficiency as small-scale selection: mean viability with and without AP20187, and percentage killing, in large and small scale were about 3.9%, about 84.0%, about 95.4% (n=3) and about 6.6%, about 79.3%, about 91.4% (n=5) respectively. […]

[1] = system: differentiated progeny of human MSCs expressing iCasp9; test: Apoptosis of differentiated iCasp9-positive MSCs (TUNEL, cell density); assay type: cell-based; settings: adipocytic differentiation, 50 nM CID, after 24 hours (from 584 cells/mm2)
Protocol: Differentiated MSCs. Transduced MSCs were differentiated as presented above. At the end of the differentiation period, CID was added to the differentiation media at 50 nM. Cells were stained appropriately for the tissue being studied, as presented above, and a contrast stain (methylene azur or methylene blue) was used to evaluate the nuclear and cytoplasmic morphology. In parallel, tissues were processed for terminal deoxynucleotidyl-transferase dUTP nick end labeling (TUNEL) assay as per manufacturer instructions (In Situ Cell Death Detection Kit, Roche Diagnostics, Mannheim, Germany). For each time point, four random fields were photographed at a final magnification of 40× and the images were analyzed with ImageJ software version 1.43o (NIH, Bethesda, Md.). Cell density was calculated as the number of nuclei (DAPI positivity) per unit of surface area (in mm^2). The percentage of apoptotic cells was determined as the ratio of the number of nuclei with positive TUNEL signal (FITC positivity) to the total number of nuclei. Controls were maintained in culture without CID.
After culture in adipocytic differentiation media, iCasp9-positive cells gave rise to adipocytes. After exposure to 50 nM CID, progressive apoptosis was observed as evidenced by an increasing proportion of TUNEL-positive cells. […]

iCasp9-transduced MSCs = test: Apoptosis of iCasp9-transduced undifferentiated MSCs in vitro (annexin V-PE/7-AAD); assay type: cell-based, human; settings: CID 50 nM, 24 hours, FACS example
Protocol: Undifferentiated MSCs. The chemical inducer of dimerization (CID) (AP20187; ARIAD Pharmaceuticals, Cambridge, Mass.) was added at 50 nM to iCasp9-transduced MSCs cultures in complete medium. Apoptosis was evaluated 24 hours later by FACS analysis, after cell harvest and staining with annexin V-PE and 7-AAD in annexin V binding buffer (BD Biosciences, San Diego, Calif.). Control iCasp9-transduced MSCs were maintained in culture without exposure to CID.
The proapoptotic gene product iCasp9 can activated by a small chemical inducer of dimerization (CID), AP20187, an analogue of tacrolimus that binds the FK506-binding domain present in the iCasp9 product. Non-transduced MSCs have a spontaneous rate of apoptosis in culture of approximately 18% (±7%) as do iCasp9-positive cells at baseline (15±6%, P=0.47). Addition of CID (50 nM) to MSC cultures after transduction with iCasp9-ΔCD19 results in the apoptotic death of more than 90% of iCasp9-positive cells within 24 hrs (93±1%, P<0.0001), while iCasp9-negative cells retain an apoptosis index similar to that of non-transduced controls (20±7%, P=0.99 and P=0.69 vs. non-transduced controls with or without CID respectively) (see FIGS. 17A and 70B). […] Apoptosis was evaluated 24 hours later by FACS analysis, after cell harvest and staining with annexin V-PE and 7-AAD. […]

[2] = system: gene-modified allodepleted cells; test: Induction of apoptosis with AP20187 in gene-modified allodepleted cells (annexin V/7-AAD); assay type: cell-based, human
Protocol: as §1
Cells were maintained in T cell medium containing 50 U/ml IL-2 until 22 days after transduction. A portion of cells was reactivated on 24-well plates coated with […] OKT3 and 1 μg/ml anti-CD28 (Clone CD28.2, BD Pharmingen, San Jose, Calif.) for 48 to 72 hours. CD19 expression and suicide gene function in both reactivated and non-reactivated cells were measured on day 24 or 25 post transduction.
In some experiments, cells also were cultured for 3 weeks post transduction and stimulated with 30G-irradiated allogeneic PBMC at a responder:stimulator ratio of 1:1. After 4 days of co-culture, a portion of cells was treated with 10 nM AP20187. Killing was measured by annexin V/7-AAD staining at 24 hours, and the effect of dimerizer on bystander virus-specific T cells was assessed by pentamer analysis on AP20187-treated and untreated cells.

[3] = system: iCasp9M-transduced EBV-CTLs; test: CID-induced elimination of GFP+ iCasp9M-transduced EBV-CTLs (flow cytometry for GFP); assay type: cell-based, human
[4] = 10 nM, 24 hours, day following immunomagnetic selection

SMILES: CC[C@H](C(=O)N1CCCC[C@H]1C(=O)O[C@H](CCc1ccc(OC)c(OC)c1)c1cccc(OCC(=O)NCC(CNC(=O)COc2cccc([C@@H](CCc3ccc(OC)c(OC)c3)OC(=O)[C@@H]3CCCCN3C(=O)[C@@H](CC)c3cc(OC)c(OC)c(OC)c3)c2)CN(C)C)c1)c1cc(OC)c(OC)c(OC)c1 [AP20187]
- toxicity to non-transduced cells (non-transduced cells): non-toxic
- viability of non-transduced cells with AP20187 (non-transduced cells; n=6): about 86%±9
- cell density after CID [1]: < 14 cells/mm2
- annexin positive iCasp9-CD19-positive cells (iCasp pos/CID) (iCasp9-transduced MSCs): Ninety-three
- annexin positive negative population (iCasp neg/CID) (iCasp9-transduced MSCs): 19%
- AP20187-treated cells remaining viable [2, 4]: about 5.5%±2.5
- Killing efficiency after correction for baseline viability [2, 4]: about 92.9%±3.8
- killing efficiency ([2]; day 24 or 25, OKT3/aCD28-reactivated cells): ~84.6%±8.0
- residual viability following treatment with AP20187 ([2]; day 24 post transduction, 10 nM): 19.6±5.6%
- apoptosis / elimination of iCasp9-modified T cells after dimerizer (summary statement) ([2]; in vitro, listed as small-molecule dimerizer): > 90%
- reduction in mean fluorescence intensity of GFP after CID ([3]; CTLs that survived CID treatment): 70%
- further elimination of the surviving GFP+ T cells ([3]; antigenic stimulation followed by a second 10-nM dose of CID): No further elimination
- CID sufficient to obtain the maximal deletion effect ([3]; titration, F-Casp9M.I.GFPhigh, survival of GFP+ cells on day 7): 1 nM
- GFP+ cells eliminated after a single 10-nM dose of CID ([3]; unselected iCasp9M-transduced CTLs, 5 different donors): 91.3%
